Earlier results in article PMC13603578, “Biopriming with Schizophyllum commune Polysaccharides Modulates Antioxidant and Biochemical Responses in Pisum sativum L. Seedlings” (Antioxidants, 2026).

Set-up: method as in PMID 26205049
Details: under the tested conditions

Substance: liquiritigenin
- DPPH radical-scavenging inhibition: exceeding 65%
